Data: US20210009673A1, “METHODS FOR REGULATING BREAST CANCERS” (priority 2018, published 2021)
No end group written: not given here.

Legend:
[1] = tested on: MMTV-PyMT mouse breast cancers; test: breast cancer progression in MMTV-PyMT-PTN 1-40 bi-transgenic mice; assay type: in vivo
Description: The MMTV LTP promoter and human cDNA encoding PTN 1-40 (residue −32 to residue 40) was amplified using PCR from pcDNA3.1-Ptn (constructed by our laboratory). After restriction enzyme digestion, MMTV LTR and Ptn 1-40 cDNA were inserted into EcoR V, Not I and EcoR I site of pIRES-EGFP (BD clontech). The sequence of the final transgene construction (MMTV-PTN-IRES-EGFP) was verified by nucleotide sequencing. The transgene construction was freed of the bacterial sequences by digestion with EcoR V and Xho I, producing a 4.0-kb linear DNA fragment. The 4.0-kb linear DNA that was injected into the fertilized eggs of FVB mice consisted of the MMTV-LTR, PTN 1-40 cDNA, IRES (internal ribosomal entry site), EGFP cDNA, SV40 poly-adenylation sequences. Tail DNA from weaning mice derived from the transgene-injected eggs was analyzed by PCR. The mice were housed in animal facility of The Scripps Research Institute and were maintained according to NIH guidelines for the Care and Use of Laboratory Animals.
FVB/N-Tg(MMTV-PyVT)634Mul/J transgenic mice were purchased from Jackson laboratory. They develop spontaneous metastatic mammary carcinomas and have been described in before. […] Transgenic animals were genotyped using PCR analysis of genomic DNA obtained from tails. When possible, litter mates with both genotypes were used in the same experiment.
Mice were examined daily seeking mammary tumors by eye examination and finger palpation after 5 weeks of age. The tumors fully formed on the mammary glands were excised and weighed in 12-14 weeks old mice depending on the tumor size in bi-transgenic mice. Tumor length (L) and width (W) were measured 3 times a week using calipers. Tumor volume was estimated using the formula (L×W2)/2. Total wet tumor weight was weighed by scale when the tumors were excised from sacrificed mice.
The tumor tissue excised from euthanized animals was fixed in 10% buffered formalin and embedded in paraffin. The specimens were sectioned, stained with H&E, and Masson trichrome stain for collagen fibers.
Tumor tissue was fixed by 4% paraformaldehyde in phosphate-buffered saline (PBS). After PBS rinse, the tissues were cryoprotected with 30% sucrose in PBS at […] overnight, then infiltrated with a mixture of 1 parts 30% sucrose phosphate buffer to 1 part Histo Prep™ Frozen tissue embedding media (Fisher Scientific) for ½ hour at room temperature before infiltration with 100% Histo Prep™ and freezing. Cryosections ([…]) were cut and immunohistochemistry was performed using rat anti-mouse CD31 (PECAM-1. BD Pharmingen) antibodies. IMD (number of vessels/mm2) was obtained by counting CD31+ vessels in 10 random fields at ×200 magnification.
Reverse transcription was done using […] total RNA in the presence of 50 ng random hexamers using Ominscipt kit (Qiagen) following manufacturer's recommendations. Real time PCR was done using ICycler (BIORAD). The amplification conditions were: one cycle of 95° C.°, 3 min followed by 40 cycles of 95 C°, 30 sec and 60 C°, 15 sec. GAPDH was used as internal control. The fold changes relative to GAPDH was calculated using the formula: Fold Change=2 L (Ct Target1-CtTarget2)/2 L (Ct GAPDH1-CtGAPDH2) Where: Ct is the threshold of cycle number. Target is the gene measured. Number 1 and 2 represent different samples.

[2] = tested on: MDA-MB-231 cell xenograft; details: ectopic expression; Zhang, Zhong et al. 1997; cited from earlier work
ALK = ALK activation in MDA-MB-231 cells stably transfected with dominant negative PTN (anti-ALK phosphotyrosine 1586/1604 Western blot); assay type: cell-based, human; details: cells expressing dominant negative PTN vs empty vector
Method: FIG. 18: FIG. 18 illustrates: that a dominant negative PTN blocks ALK activation. MDA-MB-231 cells were transfected with an empty vector or cDNA encoding a dominant negative PTN 1-40. Cell lysates were prepared and analyzed in Western blots probed with anti-phospho-ALK tyrosine 1586/1604 (left two lanes) or separately with anti-ALK antibodies (right two lanes). Arrows point full length ALK (200 kDa) and activated ALK phosphotyrosines 1586/1604.
To test whether ALK is activated through the PTN/RPTPβ/ζ signaling pathway in MDA-MB-231 cells, lysates from MDA-MB-231 cells, stably transfected with dominant negative PTN, were first analyzed in Western blots probed with anti-ALK and with anti-ALK phosphotyrosine 1586/1604 antibodies specific for activated ALK (Bai, Dieter et al. 1998, Mol Cell Biol 18(12): 6951-61). Anti-ALK phosphotyrosines 1586/1604 immunoreactive proteins were only identified in lysates from MDA-MB-231 empty vector cells, consistent with results above and supporting ALK is activated in cells with an activated PTN/RPTPβ/ζ signaling pathway.
The vector pcDNA3.1/PTN1-40 was constructed by inserting the cDNA fragment encoding residues −32 to 40 of human PTN protein into XbaI and BamHI of pcDNA3.1/myc-his/hygro vector (Invitrogen).

## dominant negative PTN: mutant PTN (residues 1-40) forming mixed disulfide linked heterodimers with wild-type PTN; expressed from cDNA or transgene (GKKEKPEKKVKKSDCGEWQWSVCVPTSGDCGLGTREGTRT; also: forms mixed disulfide linked heterodimers with wild-type PTN; UniProt P21246 33-72, looked up, fragment)
[1]; 13-week mice, 2% in MMTV-PyMT, p=0.017
  percentage area of adenoma/MIN: 12%
[1]; 13-week mice, 20% in MMTV-PyMT, p=0.045
  percentage area occupied by early carcinoma: 41%
[1]; 13-week mice, 78% in MMTV-PyMT, P=0.024
  percentage area occupied by later carcinoma: about 45%
[1]; MMTV-PyMT-PTN 1-40 bi-transgenic mouse breast cancers
  foci of scirrhous carcinoma: not seen
[1]; about 30 in MMTV-PyMT, P<0.05
  average intratumor microvessel density (IMD): about 18 blood vessels/mm2
[1]; compared with MMTV-PyMT mice
  tropoelastin and protocollagen mRNA levels (RT-PCR): not statistically different
[1]; compared with MMTV-PyMT-Ptn and MMTV-PyMT mice
  activated fibroblasts in breast cancers: marked reduction
[2]
  MDA-MB-231 cell xenograft growth in nude mice: prevented MDA-MB-231 cell xenograft growth
ALK
  anti-ALK phosphotyrosines 1586/1604 immunoreactive proteins: essentially non-identifiable
